{
  "source": "paper PMC3711574",
  "about": "(Biochemistry, 2012)",
  "origin": "cited, not measured here",
  "test_system": "BHRF-1",
  "conditions": "ref [67]",
  "data": [
    {"sequence": "MRPEIWIAQELRRIGDEFNAYYARRV [Bim]", "values": [
      {"measurement": "Binding to BHRF-1", "result": "binds"}
    ]}
  ]
}
